Laboratory results from ChEMBL document CHEMBL1201862, “PubChem BioAssay data set” (2004).
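These data come from cells grown in 96-well plates and exposed to compound for 48 hours at five concentrations. Abbreviation: GI50, concentration required for 50% inhibition of growth.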 Activity calls are given as the source filed them. No stated cut-off is given here; in the data, active = GI50 up to about 1.1 µM and inactive = higher.

Legend:
Assay in all cases: inhibition of tumour cell growth, NCI panel, 48 h
NCI-H460 = system: NCI-H460
OVCAR-3 = system: OVCAR-3
786-0 = system: 786-0
HL-60 = system: HL-60
COLO 205 = system: COLO 205
K562 = system: K562
RPMI-8226 = system: RPMI-8226
SNB-75 = system: SNB-75
LOX IMVI = system: LOX IMVI
SNB-19 = system: SNB-19
HCT-15 = system: HCT-15
SK-MEL-28 = system: SK-MEL-28
CCRF-CEM = system: CCRF-CEM
SK-MEL-2 = system: SK-MEL-2
UACC-62 = system: UACC-62
ACHN = system: ACHN
A498 = system: A498

SMILES	GI50 (NCI-H460)	GI50 (OVCAR-3)	GI50 (786-0)	GI50 (HL-60)	GI50 (COLO 205)	GI50 (K562)	GI50 (RPMI-8226)	GI50 (SNB-75)	GI50 (LOX IMVI)	GI50 (SNB-19)	GI50 (HCT-15) [µM]	GI50 (SK-MEL-28)	GI50 (CCRF-CEM)	GI50 (SK-MEL-2)	GI50 (UACC-62)	GI50 (ACHN)	GI50 (A498)
c1ccc(-c2nnc(-c3nn(-c4ccccc4)c4nc5ccccc5nc34)o2)cc1	> 10 µM (inactive)	66.8 µM (inactive)	46.9 µM (inactive)	20.6 µM (inactive)	93.8 µM (inactive)	31 µM (inactive)	39.1 µM (inactive)	> 100 µM (inactive)	> 100 µM (inactive)	> 100 µM (inactive)	43.5	> 100 µM (inactive)	18.6 µM (inactive)	> 100 µM (inactive)	69.2 µM (inactive)	92.3 µM (inactive)	
CCc1ccccc1NC(=O)C1=C(C)NC(C)=C(C(=O)Nc2ccccc2CC)C1c1ccc(NC(C)=O)cc1	30.5 µM (inactive)	33.2 µM (inactive)	37.8 µM (inactive)	14.3 µM (inactive)	58.3 µM (inactive)	23.1 µM (inactive)	17 µM (inactive)	21.4 µM (inactive)	16.1 µM (inactive)	92.7 µM (inactive)		22.2 µM (inactive)	18.7 µM (inactive)	22.4 µM (inactive)		28.5 µM (inactive)	
OCC1C(/C=C/c2ccoc2)ON2CCCC12 (configuration not stated)	> 100 µM (inactive)		> 100 µM (inactive)	> 100 µM (inactive)	> 100 µM (inactive)			> 100 µM (inactive)	> 100 µM (inactive)	> 100 µM (inactive)		> 100 µM (inactive)		> 100 µM (inactive)		> 100 µM (inactive)	
C[Si](C)(C)C#C[I+]c1ccccc1	> 100 µM (inactive)	32.7 µM (inactive)	45.6 µM (inactive)	22.5 µM (inactive)	17.7 µM (inactive)	41.1 µM (inactive)		40.4 µM (inactive)	19.1 µM (inactive)	> 100 µM (inactive)	22.5	39.4 µM (inactive)	15.1 µM (inactive)	> 100 µM (inactive)	33.2 µM (inactive)	41.8 µM (inactive)	> 100 µM (inactive)
CCN(CC)CCCn1cnc2ncccc2c1=O	> 100 µM (inactive)	> 100 µM (inactive)	> 100 µM (inactive)		> 100 µM (inactive)	> 100 µM (inactive)		> 100 µM (inactive)	> 100 µM (inactive)	> 100 µM (inactive)		> 100 µM (inactive)	> 100 µM (inactive)	> 100 µM (inactive)	> 100 µM (inactive)	> 100 µM (inactive)	
C/C(=N/OCCC(=O)O)C1CC1	> 100 µM (inactive)	> 100 µM (inactive)	> 100 µM (inactive)	> 100 µM (inactive)	> 100 µM (inactive)	> 100 µM (inactive)	> 100 µM (inactive)	> 100 µM (inactive)	> 100 µM (inactive)	> 100 µM (inactive)	> 100	> 100 µM (inactive)	> 100 µM (inactive)	> 100 µM (inactive)	> 100 µM (inactive)	> 100 µM (inactive)	
Cc1ccc(-c2cc(=S)n(-c3ccccc3)c3[nH]c(=S)n(-c4ccccc4)c(=N)c23)cc1	> 100 µM (inactive)	> 100 µM (inactive)	> 100 µM (inactive)	> 100 µM (inactive)	> 100 µM (inactive)	> 100 µM (inactive)	> 100 µM (inactive)	> 100 µM (inactive)		> 100 µM (inactive)	> 100	> 100 µM (inactive)	> 100 µM (inactive)	> 100 µM (inactive)	> 100 µM (inactive)	> 100 µM (inactive)	
O/N=C1/C(=C/c2ccc(Cl)cc2)CCCC1C(NO)c1ccc(Cl)cc1 (configuration not stated)	17.3 µM (inactive)	16.8 µM (inactive)	20.7 µM (inactive)	18.5 µM (inactive)	20.7 µM (inactive)	24.4 µM (inactive)	20.9 µM (inactive)	12.6 µM (inactive)		24.2 µM (inactive)	19.1	5.6 µM (inactive)	19.1 µM (inactive)	27.1 µM (inactive)	29 µM (inactive)	31.5 µM (inactive)	18.1 µM (inactive)
COc1ccc(/C=C/C(=O)c2c(-c3ccccc3)nn(C)c(=O)c2N2CCOCC2)cc1	> 100 µM (inactive)		> 100 µM (inactive)	21.4 µM (inactive)	> 100 µM (inactive)	40.5 µM (inactive)	38.5 µM (inactive)		68.1 µM (inactive)	> 100 µM (inactive)	65.9	> 100 µM (inactive)	63 µM (inactive)		> 100 µM (inactive)	> 100 µM (inactive)	> 100 µM (inactive)
CCOc1ccccc1/N=N/c1c(-c2ccccc2)nn(C(=O)CC(=O)Nc2cccc(C)c2)c1-c1ccccc1	> 100 µM (inactive)	> 100 µM (inactive)	> 100 µM (inactive)	> 100 µM (inactive)	> 100 µM (inactive)	62.7 µM (inactive)	> 100 µM (inactive)	27.4 µM (inactive)	> 100 µM (inactive)	> 100 µM (inactive)		> 100 µM (inactive)	> 100 µM (inactive)	> 100 µM (inactive)	> 100 µM (inactive)	54.3 µM (inactive)	
COc1ccc2c(c1)[n+]([O-])c(-c1ccccc1Cl)c(N)[n+]2[O-]	54.5 µM (inactive)	40.6 µM (inactive)	> 100 µM (inactive)	70.3 µM (inactive)	18.5 µM (inactive)	99.1 µM (inactive)	88.1 µM (inactive)	75 µM (inactive)		> 100 µM (inactive)	39.9	> 100 µM (inactive)		> 100 µM (inactive)		86.1 µM (inactive)	> 100 µM (inactive)
O=[N+]([O-])c1cccc(C2N3CCCCC3[C@@H]3c4[nH]c5ccccc5c4CCN23)c1 (some centres not stated)	16.4 µM (inactive)	15.7 µM (inactive)	16.9 µM (inactive)	10.1 µM (inactive)	13.2 µM (inactive)	3.88 µM (inactive)	10.9 µM (inactive)			19.7 µM (inactive)	10.4	16.3 µM (inactive)	13.2 µM (inactive)	10.1 µM (inactive)	6.79 µM (inactive)	15.9 µM (inactive)	15 µM (inactive)
CSC1=Nc2ccccc2N=C(c2ccccc2)C1	19.1 µM (inactive)	30.7 µM (inactive)	34.5 µM (inactive)	15.3 µM (inactive)	21.2 µM (inactive)	34.6 µM (inactive)		66.5 µM (inactive)	17.2 µM (inactive)	> 100 µM (inactive)	33.3	> 100 µM (inactive)	21 µM (inactive)	> 100 µM (inactive)	> 100 µM (inactive)	> 100 µM (inactive)	> 100 µM (inactive)
COc1cc(/C=C2\C(=O)N(C(=O)c3ccc(NC(C)=O)cc3)N=C2C)ccc1O	> 100 µM (inactive)	> 100 µM (inactive)	> 100 µM (inactive)	> 100 µM (inactive)	> 100 µM (inactive)	> 100 µM (inactive)	> 100 µM (inactive)	> 100 µM (inactive)	> 100 µM (inactive)	> 100 µM (inactive)		> 100 µM (inactive)	> 100 µM (inactive)			> 100 µM (inactive)	
COC1C(OC(=S)Nc2ccccc2)c2ccccc2N1C(C)=O (configuration not stated)	> 100 µM (inactive)	> 100 µM (inactive)	> 100 µM (inactive)	72.8 µM (inactive)	> 100 µM (inactive)	> 100 µM (inactive)	50.4 µM (inactive)	> 100 µM (inactive)		> 100 µM (inactive)	52.1	> 100 µM (inactive)	64.4 µM (inactive)	68.9 µM (inactive)	31.4 µM (inactive)	29 µM (inactive)	> 100 µM (inactive)
Cc1cccc(C)c1NC(=O)C1C(=O)N(c2c(C)cccc2C)C(=O)/C1=N\NC(N)=S (configuration not stated)	> 100 µM (inactive)	> 100 µM (inactive)	> 100 µM (inactive)	> 100 µM (inactive)		92.9 µM (inactive)	89.5 µM (inactive)			> 100 µM (inactive)	> 100	> 100 µM (inactive)	> 100 µM (inactive)	> 100 µM (inactive)	> 100 µM (inactive)	> 100 µM (inactive)	> 100 µM (inactive)
COc1cc(/C=C/C(=O)c2cccc3ccccc23)cc(OC)c1OC	3.78 µM (inactive)	12.8 µM (inactive)	4.49 µM (inactive)	1.72 µM (inactive)		3.02 µM (inactive)		10.3 µM (inactive)	3.03 µM (inactive)	13.4 µM (inactive)		6.24 µM (inactive)	2.56 µM (inactive)	3.46 µM (inactive)	6.71 µM (inactive)	12 µM (inactive)	2.82 µM (inactive)
CC(C)C(NCc1c2ccccc2nc2ccccc12)C(=O)O (configuration not stated)	31.1 µM (inactive)	39.5 µM (inactive)	61.2 µM (inactive)	25.3 µM (inactive)	72.8 µM (inactive)	32.6 µM (inactive)	27.3 µM (inactive)	61.8 µM (inactive)	30.5 µM (inactive)		35.7	87.5 µM (inactive)	23.8 µM (inactive)	62.2 µM (inactive)		35 µM (inactive)	
COC1(OC)C2(Cl)C3=CCCC=C3C1(Cl)C(Cl)=C2Cl	26.5 µM (inactive)	17.4 µM (inactive)	27.4 µM (inactive)	13.9 µM (inactive)	18.6 µM (inactive)	> 10 µM (inactive)	12.1 µM (inactive)	23.3 µM (inactive)	15.3 µM (inactive)	26.1 µM (inactive)	27.5	30.2 µM (inactive)	19.8 µM (inactive)	16.9 µM (inactive)	25.5 µM (inactive)	28 µM (inactive)	
